Reference: US12673022B2, “Drug delivery system using solution” (Kyoto University, priority 2018, dated 2026)

Tested on: human DMD exon 45 knock-in/mouse Dmd exon 44 knock-out mouse tibialis anterior muscle
Assay: Exon skipping efficiency in skeletal muscle (human DMD exon 45)
Type: in vivo
Details: Example 7; administration solution 3: 25 mM or 250 mM 6-phospho-D-gluconic acid or N-carbamyl-L-aspartic acid, 158 mM sodium chloride, hEx45 #1 and #23 gRNA/Cas9; 50 μL once, day 7; Dunnett's test; FIG. 11
Method: Cas9 protein (120 μg), hDMD Ex45 #1 gRNA (15 μg), hDMD Ex45 #23 gRNA (15 μg) and 10×PBS (25 μL) were mixed and a 500 mM compound stock solution was added, and then, 500 mM compound stock solution was added to the mixture so as to obtain final concentrations: […], […], 300 ng/μL hDMD Ex45 #23 gRNA, 158 mM sodium chloride, 25 mM or 250 mM compound and diluted with UltraPure DNase/RNase-Free Distilled Water up to a liquid volume of 250 μL and incubated at normal temperature for 15 minutes. The Cas9 protein herein was subjected to buffer replacement with 250 mM sodium chloride by use of Amicon® Ultra 2 mL Centrifugal Filters and then put in use […]
To the tibialis anterior muscle of each of 4 weeks-old male human DMD exon 45 knock-in/mouse Dmd exon 44 knock-out mice, administration solution 3 (50 μL) was administered once. […] Subsequently, a product with skipping was quantitatively measured by use of FastStart Universal Probe Master (Roche), the primers represented by SEQ ID Nos. 14 and 15 and the probe of sequence 16. The product without skipping was quantitatively measured by use of FastStart Universal Probe Master (Roche), the primers represented by SEQ ID Nos. 17 and 18 and the probe of sequence 19. Each of the PCR products was measured by use of ViiA7™ real time PCR system. […]

## NC(=O)N[C@@H](CC(=O)O)C(=O)O [N-Carbamyl-L-aspartic acid]
  Exon skipping activity (skipping efficiency %) compared to 250 mM GABA: statistically significant results compared to 250 mM GABA
